According to paper PMC4632246 (Analytical biochemistry, 2012):

How the values were obtained:
Format in all cases: binding
[1] = molecular target: Hsp90α-CT (human Hsp90α immobilized via the C-terminal) (Homo sapiens, UniProt P07900); test: Frontal chromatography on Hsp90α-CT column; details: for Bmax: Hsp90α-CT column, frontal chromatography, number of active binding sites, ±SE
[2] = molecular target: Hsp90α-NT (human Hsp90α immobilized via the N-terminal) (Homo sapiens, UniProt P07900); test: Frontal chromatography on Hsp90α-NT column; details: for Bmax: Hsp90α-NT column, frontal chromatography, number of active binding sites, ±SE
[3] = molecular target: Hsp90α-NT (middle domain of Hsp90α) (Homo sapiens, UniProt P07900); test: Competition studies of eNOS and CEP on Hsp90α-NT column; details: eNOS added to the mobile phase

retention factors of CEP with an increase in eNOS concentrations [3] | Compound | Kd [1] | Bmax [1] | Kd [2] | Bmax [2]
decreased | COc1ccc2cc1Oc1ccc(cc1)C[C@H]1c3c(cc4c(c3Oc3cc5c(cc3OC)CCN(C)[C@@H]5C2)OCO4)CCN1C [Cepharanthine, cepharanthine] | 6.3 ± 1.7 µM | 56.9 ± 7.2 nmol | 5.3 ± 1.3 µM | 19.8 ± 3.1 nmol
– | COc1cc2c3c(c1OC)Oc1ccc(cc1)C[C@@H]1c4c(cc(OC)c(OC)c4Oc4ccc(cc4)C[C@H]3N(C)CC2)CCN1C [Cycleanine, cycleanine] | 143 ± 36.6 µM | 578 ± 110 nmol | 159 ± 23.2 µM | 37.3 ± 2.5 nmol
– | berbamine | – | 89.7 ± 17.1 nmol | – | 36.5 ± 3.3 nmol
– | isotetrandrine | – | 250 ± 29.7 nmol | – | 54.7 ± 6.3 nmol
